Experimental findings from EPA's ToxValDB 9.5 (doi:10.2903/j.efsa.2013.3212) are described below.

One data set deals with Typhlodromus pyri. Nature of the data set: LR50; higher = less toxic.
In another data set the test system is Rattus norvegicus. The note with it: for NOAEL: hematological.
A further data set deals with Anas platyrhynchos. The conditions noted are these: for LD50: oral, mortality.
The test system of the next data set is Tagia sp. The note with it: acute; duration: 14 days; mortality.
For a further data set, the system named is Oncorhynchus mykiss. The conditions noted are these: acute; duration: 96 hours; mortality.
The test system of the next data set is Apis mellifera. The conditions noted are these: acute; duration: 48 hours; oral; unspecified; mortality.
For the next data set, the system named is Canidae. The note with it: chronic; duration: 1 years; oral; Dog Other; hematological.
The subject of a further data set is Pleurozium sp. The conditions noted are these: acute; duration: 72 hours; biomass.
Another data set has as its system Colinus virginianus. The note with it: reproduction developmental; reproduction.
In the next data set the test system is Plant. The note with it: not reported; no effects.
The subject of the next data set is Coturnix japonica. The note with it: acute, oral, mortality.
A further data set has as its system Daphnia magna. The conditions noted are these: chronic/long-term; duration: 21 days; reproduction.

SMILES strings stand for the structures. In brackets after ≈: the same amount, converted by molar mass. A value given as a limit tells only on which side of the number the result lay.

A word on the NOAEL: it is the highest dose or exposure tested at which no adverse effect was seen. Consider `CCCCCCCCCCCCC1=C(OC(C)=O)C(=O)c2ccccc2C1=O` [Acequinocyl], for which the LR50 is 8.52 g/ha in the data set with Typhlodromus pyri (acute, duration: 7 days, mortality) and 10 g/ha in the data set with Typhlodromus pyri (not reported, reproduction). Moreover, the LD50 with Rattus norvegicus (acute, oral, mortality) was more than 4860 mg/kg; in the data set on Anas platyrhynchos (acute, unspecified), more than 1940 mg/kg; in the data set with Anas platyrhynchos (short-term, feed) it was more than 1340 mg/kg; in the data set with Apis mellifera, more than 100 µg/piece; in the data set on Coturnix japonica (diet) it was more than 847 mg/kg; in the data set on Coturnix japonica, more than 1940 mg/kg. In addition, the no-observed-adverse-effect level (NOAEL) with Rattus norvegicus (chronic, duration: 2 years) amounted to 2.3 mg/kg-day; with Rattus norvegicus (repeat dose other, oral), 8 mg/kg-day; in the data set with Rattus norvegicus (reproduction developmental), 6.9 mg/kg-day; with Canidae it was 5 mg/kg-day. Also, the NOEL is 7.48 mg/kg in the data set with Anas platyrhynchos (reproductive, reproduction) and 217 mg/kg-day in the data set with Colinus virginianus. The LC50 in the data set on Tagia sp. was more than 1000 mg/kg; in the data set with Oncorhynchus mykiss, 65 µg/mL (≈ 169 µM); with Pleurozium sp., 0.93 µg/mL (≈ 2.42 µM). The same molecule came in with an LEL in the data set on Plant of 5000 g/ha. The molecule further showed an NOEC with Daphnia magna of 0.00098 mg/L.
